Results: PubChem BioAssay AID1918937 (Molecular Pharmacology Branch, DTP, NCI, 2023)
Values joined by “and” are separate entries in the source; they are usually repeats but may differ in a detail not shown here. Identical values can stand only once. Values belong to the molecule of their own block, whether it stands above or below them.

Test system: 521955-158-R2-J5-PDC complex spheroid viability
Assay: Anticancer human tumor 521955-158-R2-J5-PDC patient-derived pancreatic carcinoma cell line growth inhibition
Settings: for viability, T/C: stronger effect = lower value
How it was run: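 Drug combinations with the LSD1 inhibitor iadademstat tested on tumor cells co-cultured as spheroids with endothelial cells and mesenchymal stem cells. Concentrations descended in half-log increments from clinical Cmax or 10 microM.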

[1] = curve of first compound, second compound 0.1 µM
[2] = curve of first compound, second compound 0.316 µM
[3] = curve of first compound, second compound 1 µM
[4] = curve of first compound, second compound 3.16 µM
[5] = curve of first compound, second compound 10 µM
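Further: spheroids exposed to agents for seven days.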
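Wherever viability, T/C is given: percent of DMSO vehicle control luminescence viability.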

IC50 (curve of compound): 0.0319 µM and 0.067 µM
SMILES: NS(=O)(=O)OCC1CC(n2ccc3c(NC4CCc5ccccc54)ncnc32)CC1O (centres undefined)
viability, T/C (compound 0.00949 µM): 79% and 92.2%
viability, T/C (compound 0.03 µM): 51.8% and 75%
viability, T/C (compound 0.0949 µM): 24.6% and 38.1%
viability, T/C (compound 0.3 µM): 16.3% and 20.5%
viability, T/C (compound 0.949 µM): 14.1% and 15.6%
viability, T/C (compound 3 µM): 9.5% and 9.51%

IC50 (curve of compound): > 0.1 µM
SMILES: Cn1ncnc1C1c2n[nH]c(=O)c3cc(F)cc(c23)NC1c1ccc(F)cc1 (centres undefined)
viability, T/C (compound 0.000316 µM): 102% and 101%
viability, T/C (compound 0.001 µM): 97.6% and 112%
viability, T/C (compound 0.00316 µM): 95.6% and 91.6%
viability, T/C (compound 0.01 µM): 96.3% and 103%
viability, T/C (compound 0.0316 µM): 91.7% and 89.2%
viability, T/C (compound 0.1 µM): 86.4% and 98%

SMILES: CC1(C)CCC(CN2CCN(c3ccc(C(=O)NS(=O)(=O)c4ccc(NCC5CCOCC5)c([N+](=O)[O-])c4)c(Oc4cnc5[nH]ccc5c4)c3)CC2)=C(c2ccc(Cl)cc2)C1 + NC1CCC(NC2CC2c2ccccc2)CC1
IC50 [1]: 4.2 µM
IC50 [2]: 3.81 µM
IC50 [3]: 3.77 µM
IC50 [4]: 3.11 µM
IC50 [5]: 3.79 µM
viability, T/C (second compound 0.1 µM, first compound 0.0316 µM): 109%
viability, T/C (second compound 0.1 µM, first compound 0.1 µM): 116%
viability, T/C (second compound 0.1 µM, first compound 0.316 µM): 112%
viability, T/C (second compound 0.1 µM, first compound 1 µM): 109%
viability, T/C (second compound 0.1 µM, first compound 3.16 µM): 66.1%
viability, T/C (second compound 0.1 µM, first compound 10 µM): 0.51%
viability, T/C (second compound 0.316 µM, first compound 0.0316 µM): 119%
viability, T/C (second compound 0.316 µM, first compound 0.1 µM): 113%
viability, T/C (second compound 0.316 µM, first compound 0.316 µM): 116%
viability, T/C (second compound 0.316 µM, first compound 1 µM): 111%
viability, T/C (second compound 0.316 µM, first compound 3.16 µM): 59.5%
viability, T/C (second compound 0.316 µM, first compound 10 µM): 0.64%
viability, T/C (second compound 1 µM, first compound 0.0316 µM): 108%
viability, T/C (second compound 1 µM, first compound 0.1 µM): 105%
viability, T/C (second compound 1 µM, first compound 0.316 µM): 108%
viability, T/C (second compound 1 µM, first compound 1 µM): 103%
viability, T/C (second compound 1 µM, first compound 3.16 µM): 58.8%
viability, T/C (second compound 1 µM, first compound 10 µM): 0.9%
viability, T/C (second compound 3.16 µM, first compound 0.0316 µM): 116%
viability, T/C (second compound 3.16 µM, first compound 0.1 µM): 124%
viability, T/C (second compound 3.16 µM, first compound 0.316 µM): 111%
viability, T/C (second compound 3.16 µM, first compound 1 µM): 109%
viability, T/C (second compound 3.16 µM, first compound 3.16 µM): 49%
viability, T/C (second compound 3.16 µM, first compound 10 µM): 0.91%
viability, T/C (second compound 10 µM, first compound 0.0316 µM): 119%
viability, T/C (second compound 10 µM, first compound 0.1 µM): 117%
viability, T/C (second compound 10 µM, first compound 0.316 µM): 117%
viability, T/C (second compound 10 µM, first compound 1 µM): 115%
viability, T/C (second compound 10 µM, first compound 3.16 µM): 59.1%
viability, T/C (second compound 10 µM, first compound 10 µM): 0.85%

SMILES: CCN(c1cc(-c2ccc(CN3CCOCC3)cc2)cc(C(=O)NCc2c(C)cc(C)[nH]c2=O)c1C)C1CCOCC1 + NC1CC1c1ccc(-c2cccc(O)c2)cc1
IC50 [1]: > 3 µM
IC50 [2]: > 3 µM
IC50 [3]: > 3 µM
IC50 [4]: > 3 µM
IC50 [5]: > 3 µM
viability, T/C (second compound 0.1 µM, first compound 0.00949 µM): 98.8%
viability, T/C (second compound 0.1 µM, first compound 0.03 µM): 96.3%
viability, T/C (second compound 0.1 µM, first compound 0.0949 µM): 87.4%
viability, T/C (second compound 0.1 µM, first compound 0.3 µM): 82.1%
viability, T/C (second compound 0.1 µM, first compound 0.949 µM): 86.8%
viability, T/C (second compound 0.1 µM, first compound 3 µM): 72.3%
viability, T/C (second compound 0.316 µM, first compound 0.00949 µM): 89%
viability, T/C (second compound 0.316 µM, first compound 0.03 µM): 85.2%
viability, T/C (second compound 0.316 µM, first compound 0.0949 µM): 82.4%
viability, T/C (second compound 0.316 µM, first compound 0.3 µM): 82.2%
viability, T/C (second compound 0.316 µM, first compound 0.949 µM): 82.2%
viability, T/C (second compound 0.316 µM, first compound 3 µM): 77.5%
viability, T/C (second compound 1 µM, first compound 0.00949 µM): 75.5%
viability, T/C (second compound 1 µM, first compound 0.03 µM): 88.3%
viability, T/C (second compound 1 µM, first compound 0.0949 µM): 88.4%
viability, T/C (second compound 1 µM, first compound 0.3 µM): 87.1%
viability, T/C (second compound 1 µM, first compound 0.949 µM): 79.8%
viability, T/C (second compound 1 µM, first compound 3 µM): 85.7%
viability, T/C (second compound 3.16 µM, first compound 0.00949 µM): 91.2%
viability, T/C (second compound 3.16 µM, first compound 0.03 µM): 91.6%
viability, T/C (second compound 3.16 µM, first compound 0.0949 µM): 92.4%
viability, T/C (second compound 3.16 µM, first compound 0.3 µM): 83.9%
viability, T/C (second compound 3.16 µM, first compound 0.949 µM): 70.9%
viability, T/C (second compound 3.16 µM, first compound 3 µM): 77.7%
viability, T/C (second compound 10 µM, first compound 0.00949 µM): 83.4%
viability, T/C (second compound 10 µM, first compound 0.03 µM): 110%
viability, T/C (second compound 10 µM, first compound 0.0949 µM): 92.2%
viability, T/C (second compound 10 µM, first compound 0.3 µM): 82.7%
viability, T/C (second compound 10 µM, first compound 0.949 µM): 80.3%
viability, T/C (second compound 10 µM, first compound 3 µM): 76.7%
